Assay results taken from patent publication US20110142961A1, “METHODS AND REAGENTS FOR PREDICTING CLINICAL OUTCOME AND CUSTOMIZING CHEMOTHERAPY IN LUNG CANCER PATIENTS” (Pangaea Biotech S.A., priority 2008, published 2011).

Test system: metastatic NSCLC (patients with lung adenocarcinoma or large-cell carcinoma)
Assay: Customized treatment of metastatic NSCLC according to EGFR mutations and BRCA1 mRNA levels: survival
Assay type: in vivo
Details: median follow-up of 10 months
Experimental: Background: A study was carried out wherein treatment of metastatic NSCLC was customized according to the presence of EGFR mutations and BRCA1 mRNA levels.
Methods: 93 patients with lung adenocarcinoma or large-cell carcinoma were screened for EGFR Δ746-750 deletion and L858R mutation and BRCA1 mRNA expression. 15 patients with the L858R mutation in the EGFR gene received erlotinib; 78 patients without the L858R mutation in the EGFR gene received chemotherapy according to BRCA1 levels (low: gemcitabine/cisplatin; intermediate: docetaxel/cisplatin; high: docetaxel alone). In addition, Abraxas and RAP80 mRNA expression were examined in 60/78 patients without the L858R mutation. The features of the patients are collected in Tables I and II.

CC(=O)O[C@@]12CO[C@@H]1C[C@H](O)[C@@]1(C)C(=O)[C@H](O)C3=C(C)[C@@H](OC(=O)[C@H](O)[C@@H](NC(=O)OC(C)(C)C)c4ccccc4)C[C@@](O)([C@@H](OC(=O)c4ccccc4)[C@H]21)C3(C)C [docetaxel]
median survival (12 patients with high BRCA1 levels (received docetaxel alone)): 11 months

C#Cc1cccc(Nc2ncnc3cc(OCCOC)c(OCCOC)cc23)c1 [erlotinib]
median survival (11 patients with EGFR mutations (received erlotinib)): not reached

docetaxel/cisplatin
median survival (34 patients with intermediate BRCA1 levels (received docetaxel/cisplatin)): 9 months

gemcitabine/cisplatin
median survival (32 patients with low BRCA1 levels (received gemcitabine/cisplatin)): not reached
